How the values were obtained:
barnyardgrass [1] = assay: Test A pre-/postemergence herbicide test; assay type: in vivo, Echinochloa crus-galli
How it was run: (§1)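 Pre: seeded sandy loam, directed soil spray, compound in non-phytotoxic solvent + surfactant. Post: 1–2-leaf plants (2–10 cm), sprayed to runoff. Greenhouse ~10 d; visual injury vs untreated, 0–100 scale.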

large crabgrass = assay: Test A pre-/postemergence herbicide test; assay type: in vivo, Digitaria sanguinalis
How it was run: as §1

giant foxtail = assay: Test A pre-/postemergence herbicide test; assay type: in vivo, Setaria faberi
How it was run: as §1

redroot pigweed = assay: Test A pre-/postemergence herbicide test; assay type: in vivo, Amaranthus retroflexus
How it was run: as §1

bermudagrass = assay: Test C pre-/postemergence herbicide test; assay type: in vivo, Cynodon dactylon; settings: for Plant response rating (0 = no effect, 100 = complete control), Bermudagrass: 62 g ai/ha
How it was run: (§2)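 Visual injury scores run from 0 (no effect) to 100 (complete control), assessed relative to untreated controls 12 to 14 days after treatment in the greenhouse. Chemicals were formulated in a non-phytotoxic solvent mixture with surfactant and applied to soil after planting or to emerged plants at the 1- to 4-leaf stage.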

Surinam grass = assay: Test C pre-/postemergence herbicide test; assay type: in vivo, Urochloa decumbens; settings: preemergence; for Plant response rating (0 = no effect, 100 = complete control), Surinam Grass: 62 g ai/ha
How it was run: as §2

woolly cupgrass = assay: Test C pre-/postemergence herbicide test; assay type: in vivo, Eriochloa villosa; settings: preemergence; for Plant response rating (0 = no effect, 100 = complete control), Cupgrass, Woolly: 62 g ai/ha
How it was run: as §2

johnsongrass = assay: Test C pre-/postemergence herbicide test; assay type: in vivo, Sorghum halepense; settings: preemergence; for Plant response rating (0 = no effect, 100 = complete control), Johnsongrass: 62 g ai/ha
How it was run: as §2

morningglory = assay: Test C pre-/postemergence herbicide test; assay type: in vivo, Ipomoea coccinea; parameters: key to Plant response rating, Morningglory: 0 = no effect, 100 = complete control; settings: preemergence; for Plant response rating (0 = no effect, 100 = complete control), Morningglory: 62 g ai/ha
How it was run: as §2

barnyardgrass [2] = assay: Test C flooded paddy test; assay type: in vivo, Echinochloa crus-galli; settings: for Plant response rating, Barnyardgrass: 500 g ai/ha, visual rating after 12 to 14 days
How it was run: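 Plants were grown to the 1- to 4-leaf stage (2–18 cm) and then treated postemergence, or grown to the 2-leaf stage for the flooded paddy test. They were held in a greenhouse for 12 to 14 days and then scored by eye against controls, where 0 is no effect and 100 is complete control.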

[3] = Postemergence, 500 g ai/ha, 0 to 100 scale, 0 no effect, 100 complete control
[4] = Postemergence, 2000 g ai/ha, 0 to 100 scale, 0 no effect, 100 complete control
[5] = Preemergence, 500 g ai/ha, visual rating, 0 to 100 scale (0 no effect, 100 complete control)
[6] = Preemergence, 2000 g ai/ha, 0 to 100 scale, 0 no effect, 100 complete control
[7] = 125 g ai/ha, scale 0 (no effect) to 100 (complete control), visual, 12 to 14 days, preemergence
[8] = 125 g ai/ha, scale 0 (no effect) to 100 (complete control), visual, 12 to 14 days
[9] = 62 g ai/ha, scale 0 to 100 (0 no effect, 100 complete control)
[10] = 125 g ai/ha, scale of 0 to 100, 0 is no effect, 100 is complete control
[11] = 250 g ai/ha, scale of 0 to 100, 0 is no effect, 100 is complete control
[12] = scale 0 to 100 (0 no effect, 100 complete control)
[13] = Preemergence, 2000 g ai/ha, visual rating, 0 to 100 scale (0 no effect, 100 complete control)

## CCOC(=O)c1cc(NC(=O)c2cc(C(C)(C)C)nn2CC)ccc1OCC [Compound 95]
Barnyardgrass [1]; [3]
  Barnyardgrass plant response rating: 30
Barnyardgrass [1]; [4]
  Plant response rating, Barnyardgrass: 55
Barnyardgrass [1]; [5]
  Barnyardgrass plant response rating: 30
Barnyardgrass [1]; [6]
  Barnyardgrass plant response rating: 50
Large crabgrass; [3]
  Crabgrass, Large plant response rating: 25
Large crabgrass; [4]
  Plant response rating, Crabgrass, Large: 60
Large crabgrass; [5]
  Crabgrass, Large plant response rating: 50
Large crabgrass; [6]
  Crabgrass, Large plant response rating: 90
Giant foxtail; [3]
  Foxtail, Giant plant response rating: 20
Giant foxtail; [4]
  Plant response rating, Foxtail, Giant: 50
Giant foxtail; [5]
  Foxtail, Giant plant response rating: 70
Giant foxtail; [6]
  Foxtail, Giant plant response rating: 90
Redroot pigweed; [3]
  Pigweed plant response rating: 85
Redroot pigweed; [4]
  Plant response rating, Pigweed: 100
Redroot pigweed; [5]
  Pigweed plant response rating: 100
Redroot pigweed; [6]
  Pigweed plant response rating: 100
bermudagrass; 31 g ai/ha, preemergence, scale 0 to 100
  Plant response rating, Bermudagrass: 10
bermudagrass; preemergence
  Plant response rating (0 = no effect, 100 = complete control), Bermudagrass: 70
bermudagrass; [7]
  Plant response rating, Bermudagrass: 100
bermudagrass; 250 g ai/ha, scale 0 to 100 (0 no effect, 100 complete control), visual, 12 to 14 days, preemergence
  Plant response rating, Bermudagrass: 100
Surinam grass; 31 g ai/ha, scale 0 to 100
  Plant response rating, Surinam Grass: 0
Surinam grass
  Plant response rating (0 = no effect, 100 = complete control), Surinam Grass: 0
Surinam grass; [8]
  Plant response rating, Surinam Grass: 10
Woolly cupgrass; 31 g ai/ha, scale 0 to 100
  Plant response rating, Cupgrass, Woolly: 0
Woolly cupgrass
  Plant response rating (0 = no effect, 100 = complete control), Cupgrass, Woolly: 5
Woolly cupgrass; [8]
  Plant response rating, Cupgrass, Woolly: 10
Woolly cupgrass; 250 g ai/ha, scale 0 to 100 (0 no effect, 100 complete control), visual, 12 to 14 days
  Plant response rating, Cupgrass, Woolly: 30
johnsongrass; 31 g ai/ha, scale 0 to 100
  Plant response rating, Johnsongrass: 0
johnsongrass
  Plant response rating (0 = no effect, 100 = complete control), Johnsongrass: 0
johnsongrass; [8]
  Plant response rating, Johnsongrass: 40
morningglory; 31 g ai/ha, scale 0 to 100
  Plant response rating, Morningglory: 0
morningglory
  Plant response rating (0 = no effect, 100 = complete control), Morningglory: 5
morningglory; [8]
  Plant response rating, Morningglory: 10
Barnyardgrass [2]; [9]
  Barnyardgrass plant response rating: 20
Barnyardgrass [2]; [10]
  Barnyardgrass plant response rating: 45
Barnyardgrass [2]; [11]
  Barnyardgrass plant response rating: 55
Barnyardgrass [2]; [12]
  Plant response rating, Barnyardgrass: 60

## CC(=O)c1cccc(NC(=O)c2cc(C(C)(C)C)nn2CCF)c1 [Compound 128]
Barnyardgrass [1]; [3]
  Barnyardgrass plant response rating: 70
Barnyardgrass [1]; [4]
  Plant response rating, Barnyardgrass: 80
Barnyardgrass [1]; [5]
  Barnyardgrass plant response rating: 55
Barnyardgrass [1]; [13]
  Barnyardgrass plant response rating: 85
Large crabgrass; [3]
  Crabgrass, Large plant response rating: 60
Large crabgrass; [4]
  Plant response rating, Crabgrass, Large: 70
Large crabgrass; [5]
  Crabgrass, Large plant response rating: 90
Large crabgrass; [13]
  Crabgrass, Large plant response rating: 100
Giant foxtail; [3]
  Foxtail, Giant plant response rating: 45
Giant foxtail; [4]
  Plant response rating, Foxtail, Giant: 60
Giant foxtail; [5]
  Foxtail, Giant plant response rating: 15
Giant foxtail; [13]
  Foxtail, Giant plant response rating: 65
Redroot pigweed; [3]
  Pigweed plant response rating: 50
Redroot pigweed; [4]
  Plant response rating, Pigweed: 80
Redroot pigweed; [13]
  Pigweed plant response rating: 95
Redroot pigweed; preemergence, 500 g ai/ha, visual injury, 0 to 100 scale (0 no effect, 100 complete control)
  Pigweed plant response rating: 60
bermudagrass; 16 g ai/ha, scale 0 to 100, 0 no effect, 100 complete control, last section of Table C (species set of preemergence test)
  Plant response rating, Bermudagrass: 30
bermudagrass; 31 g ai/ha, scale 0 to 100, 0 no effect, 100 complete control, last section of Table C (species set of preemergence test)
  Plant response rating, Bermudagrass: 90
bermudagrass; preemergence
  Plant response rating (0 = no effect, 100 = complete control), Bermudagrass: 100
bermudagrass; [7]
  Plant response rating, Bermudagrass: 100
Surinam grass
  Plant response rating (0 = no effect, 100 = complete control), Surinam Grass: 30
Surinam grass; [8]
  Plant response rating, Surinam Grass: 60
Woolly cupgrass
  Plant response rating (0 = no effect, 100 = complete control), Cupgrass, Woolly: 10
Woolly cupgrass; [8]
  Plant response rating, Cupgrass, Woolly: 20
johnsongrass
  Plant response rating (0 = no effect, 100 = complete control), Johnsongrass: 90
johnsongrass; [8]
  Plant response rating, Johnsongrass: 90
morningglory
  Plant response rating (0 = no effect, 100 = complete control), Morningglory: 30
morningglory; [8]
  Plant response rating, Morningglory: 30
Barnyardgrass [2]; [9]
  Barnyardgrass plant response rating: 30
Barnyardgrass [2]; [10]
  Barnyardgrass plant response rating: 35
Barnyardgrass [2]; [11]
  Barnyardgrass plant response rating: 60
Barnyardgrass [2]; [12]
  Plant response rating, Barnyardgrass: 65

— patent US20060069132A1, “Azolecarboxamide herbicides” (priority 2004, published 2006)
